Results reported in BindingDB's records for doi:10.1021/jm980254j (Georgetown University Medical Center, 1998).

Target: phosphoinositide-specific phospholipase C (Bos taurus)
Assay: In vitro inhibitory activity against bovine Phosphoinositide specific phospholipase C (PI-PLC)

IC50: 8 µM
Compound: CCCCCCCCCCCCCCCC(=O)OC[C@H](COP(=O)(O)OC1C(O)C(O)C(O)C(F)C1O)OC(=O)CCCCCCCCCCCCCCC (stereo partly drawn) [Hexadecanoic acid (R)-2-[(3-fluoro-2,4,5,6-tetrahydroxy-cyclohexyloxy)-hydroxy-phosphoryloxy]-1-hexadecanoyloxymethyl-ethyl ester]
